According to ChEMBL document CHEMBL5230126, “Cyclic tailor-made amino acids in the design of modern pharmaceuticals” (Eur J Med Chem, 2020):

What was measured:
[1] = Displacement of [125I]-Ang II from rat liver membrane AT1R incubated for 3 hrs; format: cell membranes
[2] = Displacement of [125I]-Ang II from rabbit uterine membrane AT2R incubated for 3 hrs in presence of DuP 753; format: cell membranes, Oryctolagus cuniculus, Uterus
[3] = target: T1, Orexin/Hypocretin receptor type 1 (Homo sapiens) (UniProt O43613); experiment: Antagonist activity at human OX1 receptor; conditions: filed as antagonist
T1 sequence (whole entry): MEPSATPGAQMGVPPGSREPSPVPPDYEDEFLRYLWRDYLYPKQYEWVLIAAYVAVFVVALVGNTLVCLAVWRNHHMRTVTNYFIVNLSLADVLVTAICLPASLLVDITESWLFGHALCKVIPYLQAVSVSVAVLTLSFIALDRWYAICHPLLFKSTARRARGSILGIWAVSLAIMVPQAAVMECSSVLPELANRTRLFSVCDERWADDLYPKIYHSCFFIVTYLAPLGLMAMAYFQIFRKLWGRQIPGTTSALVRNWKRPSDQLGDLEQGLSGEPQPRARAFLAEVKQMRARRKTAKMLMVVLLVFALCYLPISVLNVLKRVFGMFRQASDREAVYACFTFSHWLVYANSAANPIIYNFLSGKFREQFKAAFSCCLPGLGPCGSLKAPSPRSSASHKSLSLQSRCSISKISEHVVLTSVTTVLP

Orexin receptor type 2 = target: T2, Orexin receptor type 2 (Homo sapiens, UniProt O43614); experiment: Inhibition of human orexin 2
T2 sequence (O43614 whole entry): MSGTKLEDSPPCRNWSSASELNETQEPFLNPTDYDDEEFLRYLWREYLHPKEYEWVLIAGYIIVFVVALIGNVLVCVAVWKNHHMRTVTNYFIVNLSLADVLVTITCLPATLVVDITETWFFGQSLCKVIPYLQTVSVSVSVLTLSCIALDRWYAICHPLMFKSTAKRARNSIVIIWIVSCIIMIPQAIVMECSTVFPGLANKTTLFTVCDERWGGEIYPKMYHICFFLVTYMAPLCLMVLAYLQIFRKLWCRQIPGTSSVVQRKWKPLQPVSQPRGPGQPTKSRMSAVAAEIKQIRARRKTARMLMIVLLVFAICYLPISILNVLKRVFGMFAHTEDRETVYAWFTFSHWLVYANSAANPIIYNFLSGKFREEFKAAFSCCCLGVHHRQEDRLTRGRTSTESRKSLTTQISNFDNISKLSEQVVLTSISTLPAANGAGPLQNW

[4] = target: T3, Orexin/Hypocretin receptor type 1 (Homo sapiens, UniProt O43613); experiment: Inhibition of human orexin 1
T3 sequence (O43613 whole entry): T1 sequence (whole entry)

Row | IC50 [1] [nM] | IC50 [2] [nM] | pKb [3] | Ki (Orexin receptor type 2) [nM] | Ki [4] [nM] | Compound
1 | > 10000 | 6.9 |  |  |  | Cc1cc(Cn2cnc3c2C[C@@H](C(=O)O)N(C(=O)C(c2ccccc2)c2ccccc2)C3)ccc1N(C)C
2 | > 10000 | 0.58 |  |  |  | COc1ccc2c(c1OCc1ccccc1)C[C@@H](C(=O)O)N(C(=O)C(c1ccccc1)c1ccccc1)C2 [OLODANRIGAN]
3 |  |  | 8 |  |  | Cc1ccc(-c2cnccn2)c(C(=O)N2CCC3(CC3)C[C@H]2CNc2cccc(C(F)(F)F)n2)c1
4 |  |  |  | 1580 | 79.4 | Cc1ccc(-c2ncccn2)c(C(=O)N2C[C@@H]3C[C@@H]3C[C@H]2CNc2nnc(C(F)(F)F)s2)n1
